Experimental data reported in PMC7156612, “Olinciguat, an Oral sGC Stimulator, Exhibits Diverse Pharmacology Across Preclinical Models of Cardiovascular, Metabolic, Renal, and Inflammatory Disease” (Frontiers in Pharmacology, 2020).
Entries after “also recorded” stand apart in the source; their conditions may differ. Read-outs that look alike come from different tables or passages of the source. Marks after values point to notes of the source that are not given here.

How the values were obtained:
[1] = Pharmacokinetics in Sprague-Dawley rats; type: in vivo; settings: rat, plasma; for bioavailability / Cmax / Tmax / half-life: po; for bioavailability: 1 mg/kg; for Cmax / Tmax / half-life: p.o. 1 mg/kg
Description: Male (n=12, 2 groups of 6) and female (n=12, 2 groups of 6) Sprague-Dawley rats (275–300 g) with indwelling jugular vein cannulae were fasted overnight prior to dosing. Animals were dosed either intravenously (i.v.) via bolus injection through a percutaneous catheter into a lateral tail vein or orally (p.o.) via gavage. Olinciguat was formulated in 60% polyethylene glycol (PEG) 400/40% water at 0.3 mg/ml (0.3 mg/kg) for i.v. dosing, and at 1 mg/ml (1 mg/kg) in 100% PEG 400 for p.o. dosing. Chow was returned to animals 4 h postdose.
Blood from i.v. and p.o. dosed rats was collected at 16 timepoints (2 groups of rats, 8 timepoints per group) over 24 h. Samples were collected into potassium ethylenediamine tetraacetic acid (K2EDTA) tubes, centrifuged (3,500 rpm for 10 min) to yield plasma. In the pharmacokinetic studies and in all in vivo studies, olinciguat plasma concentrations were determined by LC-MS/MS. Pharmacokinetic (PK) parameters were calculated by noncompartmental analysis using sparse sampling in Phoenix® WinNonLin® v.6.3 (Certara, Princeton, NJ).

[2] = Mass balance/excretion of [14C]-olinciguat in rats; type: in vivo, rat; settings: male Sprague-Dawley rats, single oral dose 3 mg/kg; for equivalents excreted in the feces, percent of administered dose: 3 mg/kg
Description: [^14C]-olinciguat, uniformly labeled with [^14C] in the fluorobenzyl ring and having a specific activity of 110 mCi/mmol, was synthesized at American Radiolabeled Chemicals, Inc. (St. Louis, MO). The radiochemical purity was determined to be >99%. Four male Sprague-Dawley rats (approximately 8 weeks old) received a single p.o. dose of 3 mg/kg [^14C]-olinciguat (specific activity 26.6 µCi/mg) in PEG 400:water 60:40 v/v (dosing volume ≤5 ml/kg). Using a single metabolism cage (Nalgene) for each rat, urine and feces were collected for 7 days at 24-h intervals, and cages were rinsed daily. Food was available ad libitum throughout the study, except for the overnight fasting period (16–18 h) before and 4 h after olinciguat administration. Deionized water was available ad libitum. After 7 days, tissues were collected. Urine, feces, liver, kidneys, and cage washes were analyzed to determine material balance.

obese ZSF1 rats = experiment: ZSF1 rat model of metabolic syndrome and diabetic nephropathy; type: in vivo
Description: (§1) Lean (n=8, 370–420 g, 15 weeks) and obese (n=32, 500–630 g, 15 weeks) male ZSF1 rats were studied. Rats were treated with enalapril to reflect standard of care drug treatment for patients with diabetic kidney disease. Dose modeling based on allometric scaling relationships estimated that a 10 mg/day enalapril dose in humans (within usual dose range of 10–40 mg based on prescribing information) corresponds to 1 mg/kg/day in rats ([Nair and Jacob, 2016]). To measure hemodynamics in freely moving animals, ZSF1 obese rats were implanted with telemetry transmitters (HD-S10, Data Sciences International) at 9–10 weeks of age, as described above.
(§2) The study included a 10-day pretreatment period and a 10-week treatment period. There were five groups of rats in the study. The lean ZSF1 control group (lean control, n=8) and one obese group (obese control, n=8) were fed normal chow and drinking water throughout the 10-day pretreatment period and the 10-week treatment period. Three groups of obese rats were treated with enalapril in drinking water (equivalent to 3 mg/kg/day) throughout the 10-day pretreatment period and the 10-week treatment period. During the treatment period, these enalapril-treated obese rats were administered normal chow (ENP, n=8) or chow containing olinciguat targeting the dose of 10 mg/kg/day (ENP+OLI10, n=8) or 30 mg/kg/day (ENP+OLI30, n=8). Blood and 24-h urine samples were obtained from all animals at baseline (immediately prior to initiation of enalapril treatment), the end of the 10-day pretreatment period (Day 10) and at week 5 and week 10 of the treatment period. Plasma samples were obtained from all olinciguat-treated animals for measurement of olinciguat exposure at week 10. During week 9 of treatment, rats were fasted for 16 h overnight prior to determination of fasting blood glucose using the AlphaTRAK (Abbott) glucose monitoring system. Body weight was measured once every other week. At the end of the study, rats were anesthetized and perfused via the left ventricle with heparinized PBS (1 U/ml heparin) containing IBMX (1 mM). Organs were collected and weighed, and plasma was collected in EDTA tubes. For serum, blood was collected in serum separator tubes, maintained at room temperature for at least 30 min and centrifuged at 6,000 rpm for 10 min, and then stored at −80°C until analysis. Urine and serum samples were analyzed using the Randox Daytona Clinical Chemistry Analyzer (Randox, Kearneysville, WV) for urine protein, serum cholesterol and serum triglycerides. All measurements were performed in accordance with manufacturer's instructions.
(§3) For histology, one kidney from each rat was fixed in 10% formalin, then embedded in paraffin. Slides were prepared and stained with hematoxylin and eosin (H&E) and periodic-acid Schiff (PAS) for light microscopic analysis. Kidney sections were evaluated for the presence of glomerular pathology, tubular damage, interstitial inflammation, interstitial fibrosis, and vascular alterations. Severity-based scoring based on these evaluations was performed by a trained pathologist.
(§4) For the ZSF1 experiment, data are expressed as mean ± standard error of the mean (SEM).
(§5) In the ZSF1 study, change from baseline NT-proBNP, week 10 heart, kidney, and liver weight, urine volume, cholesterol, triglycerides, glucose, and renal histopathology sum score were analyzed by one-way ANOVA corrected for multiple comparisons using Tukey's method. Statistically significant differences vs the obese control and vs the ENP group are indicated in the results. MAP and UPE were analyzed by an ordinary two-way ANOVA with timepoint and treatment group as independent variables, followed by a Tukey's multiple comparisons test. Within each treatment group, significant differences vs baseline are indicated in the results. At week 10, statistically significant differences vs the obese control and vs the ENP control are also indicated in the results.

[3] = as above; type: in vivo; settings: male, rat, plasma, oral; obese ZSF1, enalapril + olinciguat 30 mg/kg/day in chow; read-out: average total plasma concentration of olinciguat at Week 10
Description: as §1, §2, §3, §4, §5

[4] = obese ZSF1, enalapril 3 mg/kg/day + olinciguat 30 mg/kg/day

- Vd ([1]; both sexes, Sprague-Dawley, intravenous, 0.3 mg/kg, male and female rats, mean, read-out: mean pharmacokinetic volume of distribution): 1 L/kg
- bioavailability ([1]; both sexes, Sprague-Dawley, rats, sexes not separated (discussion), read-out: oral bioavailability (rats, overall)): 40%
- clearance ([1]; iv, female Sprague Dawley rats, i.v. 0.3 mg/kg): 5.6 mL/min/kg
- Vd ([1]; iv, female Sprague Dawley rats, i.v. 0.3 mg/kg, read-out: Vss): 0.9 L/kg
- clearance ([1]; iv, male Sprague Dawley rats, i.v. 0.3 mg/kg): 11.3 mL/min/kg
- Vd ([1]; iv, male Sprague Dawley rats, i.v. 0.3 mg/kg, read-out: Vss): 1.1 L/kg
- bioavailability ([1]; female Sprague Dawley rats, read-out: Oral bioavailability): 45%
- bioavailability ([1]; male Sprague Dawley rats, read-out: Oral bioavailability): 36%
- Cmax ([1]; female Sprague Dawley rats): 198 ng/mL
- Tmax ([1]; female Sprague Dawley rats): 3 h
- half-life ([1]; female Sprague Dawley rats): 3.9 h
- Cmax ([1]; male Sprague Dawley rats): 96.4 ng/mL
- Tmax ([1]; male Sprague Dawley rats): 1 h
- half-life ([1]; male Sprague Dawley rats): 3.5 h
- administered dose radioactivity recovered in feces and urine within the first 48 h [2]: 95%
- equivalents excreted in the urine, percent of administered dose ([2]; over 7 days): 5.7%
- equivalents excreted in the feces, percent of administered dose ([2]; over 7 days): > 95%
- equivalents excreted in the feces, percent of administered dose ([2]; over 7 days, listed as [^14C]-olinciguat): 95.3%
- Olinciguat concentration (free) (obese ZSF1 rats; obese ZSF1, olinciguat 30 mg/kg/day, total plasma concentration x 1.0% free): 5.1–6.1 nM^e
- concentration at 10 weeks [3]: 510 to 610 nM
SMILES: NC(=O)[C@](O)(CNc1nc(-c2cc(-c3ccon3)n(Cc3ccccc3F)n2)ncc1F)C(F)(F)F [olinciguat, (R)-3,3,3-trifluoro-2-(((5-fluoro-2-(1-(2-fluorobenzyl)-5-(isoxazol-3-yl)-1H-pyrazol-3-yl)pyrimidin-4-yl)amino)methyl)-2-hydroxypropanamide]
- cholesterol, percent lower than obese control (obese ZSF1 rats; [4]): 41%
- increase of proteinuria over 10 weeks (obese ZSF1 rats; [4]): 56%
- liver weight (obese ZSF1 rats; [4]): ↓ liver weight
- serum cholesterol at week 10 (obese ZSF1 rats; [4]): ↓ cholesterol
- serum triglycerides at week 10 (obese ZSF1 rats; [4]): ↓ triglycerides
- total kidney weight (obese ZSF1 rats; [4]): did not develop renal hypertrophy; also recorded: ↓ kidney weight
- triglycerides, percent lower than obese control (obese ZSF1 rats; [4]): 52%
- fasting blood glucose (obese ZSF1 rats; obese ZSF1, enalapril 3 mg/kg/day + olinciguat 30 mg/kg/day, week 9): ↓glucose
- UPE at week 10 (obese ZSF1 rats; obese ZSF1, enalapril 3 mg/kg/day + olinciguat 30 mg/kg/day, obese control 1.42 ± 0.12): ↓ proteinuria
- renal pathology sum score (obese ZSF1 rats; obese ZSF1, enalapril 3 mg/kg/day + olinciguat 30 mg/kg/day, p < 0.0001 vs obese control): significantly improved the composite renal histopathological score; also recorded: ↓ renal histopath
- glucose, percent lower (obese ZSF1 rats; obese ZSF1, treatment with olinciguat (discussion)): 43%
- difference in MAP at end of treatment between enalapril+olinciguat 30 mg/kg and enalapril monotherapy groups (obese ZSF1 rats; obese ZSF1, week 10): −8^d mmHg
